Assay results as given in patent US20190117586A1, “METHODS OF PREVENTING OR TREATING PARKINSON'S DISEASE BY THE FARNESYLATION OF PARIS” (The Johns Hopkins University, priority 2016, published 2019).

What was measured:
[1] = tested on: AAV-PARIS injected C57BL/6J mice; assay type: in vivo
PGC-1α = test: Parkin knockdown (lentiviral shRNA-parkin) SH-SY5Y cells; assay type: cell-based
Procedure: Knockdown of parkin leads to a 2.7 fold increase in the level of PARIS and a 65% decrease of PGC-1α (FIGS. 2D and 2E). […] The mRNA levels of PGC-1α and its target genes were assessed after knocking down parkin by real-time qRT-PCR.

Tg-PARIS mice = test: Tet inducible conditional PARIS transgenic mice (Tg-PARIS); assay type: in vivo
Source text: A C-terminal FLAG tagged human PARIS under the control of a tetracycline responsive regulator (TetP-PARIS-Flag) was used to generate tetracycline responsive transgenic mice (Figure S5A). […] Three of the highest copy number male founder mice were crossed with the CamKIIα-tTA transgenic mice to achieve transgene expression throughout the mouse forebrain (Mayford et al., 1996). […] Thus, dams were maintained on doxycycline to suppress PARIS expression and pups were maintained on doxycycline diet for three weeks after birth. […] Dopamine neuronal number was assessed at 6 weeks of age when the mice were moribund by unbiased stereology counting of TH and Nissl positive neurons.
A second cohort of Tg-PARIS mice were maintained on […] prior to doxycycline withdrawal. Two groups of non-transgenic control (CamKIIα-tTA or TetP-PARIS) mice were subjected to the same dietary regimen.
To generate tet-off conditional PARIS transgenic mice, linearized transgenic constructs (NotI digestion, 8 kbp) were microinjected into the embryos and the embryos were transferred into B6D2F1 pseudo-pregnant female mice (Transgenic Animal Core of National Cancer Institute). The three high copy founders (line #121, 158, 179) were mated with C57/BL6 mice for two to three generations to establish the transgenic lines. PARIS induction in conditional transgenic mice was suppressed by feeding the mice with doxycycline-containing food (doxycycline Diet-Sterile, 200 mg per kg doxycycline, Bio-Serv).

α-syn PFF-injected mice = α-syn PFF-injected mice (WT and C638S KI); assay type: in vivo; conditions: farnesol diet from 2 weeks post-injection; WT versus C638S KI
Source text: Specifically, FIG. 16A illustrates generating Zfp746^C638S/C638S knockin mice (C638S KI) by CRISPR/Cas9. […] WB, western blot analysis. (FIG. 16B). […] (FIG. 16C). […] Stereological TH, Nissl-positive neuronal counting was indicated at the bottom, n=4 mice per group. (FIG. 16 D). […] WT, n=8, 9, 10, and 9 mice for each group; C638S KI, n=8, 10, 9, and 9 mice for each group. (FIG. 16 D). […] WT, n=8, 9, 10, and 9 mice for each group; C638S KI, n=9, 10, 9, and 9 mice for each group. (FIG. 16F). […] Data=mean±SEM. (FIG. 16G).
Statistical significance was determined by two-way ANOVA test with Tukey post-hoc analysis. Differences were considered significant when p<0.05. *p<0.05, **p<0.01, and ***p<0.001.

[2] = Farnesol concentration in brain and plasma of farnesol diet fed mice by mass spectrometry; assay type: in vivo; conditions: 0.5% w/w trans-farnesol in AIN-76A diet; for concentration at 7 days: mouse, oral, 0.5 % w/w in diet
PGC-1α target genes = test: mRNA of PGC-1α target genes in SH-SY5Y cells by real-time qRT-PCR; assay type: cell-based
Procedure: The 9 compounds that activate the PGC-1α promoter in the presence of PARIS were evaluated to determine which compounds induce PGC-1α levels in SH-SY5Y cells (FIGS. 2A and 2B). […] The mRNA level of PGC-1α target genes including copper/zinc superoxide dismutase (SOD1), manganese SOD (SOD2), glutathione peroxidase (GPx1), catalase (CAT), nuclear respiratory factor-1 (NRF-1), mitochondrial transcription factor A (TFAM), mitochondrial uncoupling proteins (UCP2 and UCP3), and the oxidative phosphorylation regulators, ATP5b, cytochrome C (CytC) and cytochrome C oxidase (COX II and IV) were determined by real-time quantitative RT-PCR (qRT-PCR) (FIG. 2C).

PGC-1α and NRF-1 = test: shRNA knockdown of PARIS in SH-SY5Y cells; assay type: cell-based
PPARγ = molecular target: T1, PPARγ (Homo sapiens, UniProt P37231); conditions: cited from earlier work
T1 sequence (P37231 1-505): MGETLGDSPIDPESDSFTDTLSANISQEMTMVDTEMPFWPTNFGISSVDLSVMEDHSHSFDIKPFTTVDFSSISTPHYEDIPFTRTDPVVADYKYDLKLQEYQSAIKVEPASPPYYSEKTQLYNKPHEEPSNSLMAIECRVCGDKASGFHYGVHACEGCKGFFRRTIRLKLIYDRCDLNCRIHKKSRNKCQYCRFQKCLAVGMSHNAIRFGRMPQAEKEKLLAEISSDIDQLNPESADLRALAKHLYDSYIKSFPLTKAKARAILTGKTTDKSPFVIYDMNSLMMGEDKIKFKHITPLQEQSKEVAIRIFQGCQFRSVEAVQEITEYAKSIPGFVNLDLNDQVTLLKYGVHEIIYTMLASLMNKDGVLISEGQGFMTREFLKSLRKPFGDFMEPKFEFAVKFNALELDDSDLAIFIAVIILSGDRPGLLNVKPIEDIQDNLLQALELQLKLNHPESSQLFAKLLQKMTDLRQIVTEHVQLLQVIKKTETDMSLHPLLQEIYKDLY

[3] = dietary farnesol in rodents; cited from earlier work
[4] = farnesol diet from one week prior to injection

## CC(C)=CCC/C(C)=C/CC/C(C)=C/CO [farnesol, (2E,6E)-3,7,11-trimethyldodeca-2,6,10-trien-1-ol]
[1]; AAV injected mice, farnesol diet
  levels of PARIS WT or PARIS C631S: did not affect
[1]; AAV-PARIS WT, farnesol diet
  amphetamine-induced rotation behavior: restoration of amphetamine-induced rotation behavior
[1]; [4]
  dopamine neuronal survival, AAV-PARIS C631S mice: no effect
  loss of dopamine neurons, AAV-PARIS WT mice: completely prevents the loss of dopamine neurons
[1]; farnesol fed mice, two weeks post-AAV injection
  farnesylated PARIS in AAV-PARIS WT compared to AAV-PARIS C631S injected mice: robustly observed
PGC-1α
  level of PGC-1α: restores the level of PGC-1α
  level of parkin and PARIS: without affecting the level of parkin and PARIS
PGC-1α; qRT-PCR
  mRNA levels of SOD2, TFAM, ATP5B, CYTC, and COX II: significantly increased
  reduction of mRNA of PGC-1α and NRF-1: rescued
Tg-PARIS mice; Tg-PARIS SN, co-immunostaining
  dopaminergic neuronal PGC-1α immunoreactivity: increased dopaminergic neuronal PGC-1α immunoreactivity
Tg-PARIS mice; Tg-PARIS, farnesol diet
  Pole Test behavior: complete behavioral rescue
  farnesylation of PARIS (FLAG immunoprecipitation, farnesyl antibody): enhanced farnesylation of PARIS
  premature lethality due to PARIS overexpression: delays the premature lethality
  reduction in PGC-1α and NRF-1 levels: blocked
Tg-PARIS mice; Tg-PARIS, farnesol diet from 3 days prior to doxycycline withdrawal
  loss of dopamine neurons in the SN (TH and Nissl stereology): completely prevents the loss of dopamine neurons
Tg-PARIS mice; farnesol-fed versus normal chow-fed mice
  mRNA level of PGC-1α and NRF-1 in the SN: significantly upregulated
Tg-PARIS mice; non-transgenic control mice, farnesol diet
  PGC-1α and NRF-1 levels in control mice: increases PGC-1α and NRF-1 levels
α-syn PFF-injected mice
  neuroprotective effect in α-syn PFF-injected mice: requires PARIS farnesylation in vivo
[2]; 7 days
  increase of farnesol level in the brain versus control diet fed mice: 37%
[2]; brain
  concentration at 7 days: 155 ng/g
[2]; plasma, non-detectable on control diet
  concentration at 7 days: 113 ng/mL
PGC-1α target genes
  PGC-1α, SOD1, and ATP5B mRNA levels: increased
  mRNA level of NRF-1: robustly increased
PGC-1α and NRF-1
  PGC-1α and NRF-1 levels after knockdown of PARIS: fails to enhance the levels further
PPARγ
  activation of PPARγ in vitro: capable of activating
[3]
  cardioprotective effects: exhibits cardioprotective effects
